# Assay results from publication PMC11062894, “Protein-based bandpass filters for controlling cellular signaling with chemical inputs” (Nature Chemical Biology, 2023).
# System: GEMS receptors with CBPvene (Bcl2–LD3 and Bcl2high variants), STAT3-driven SEAP in HEK293T cells
# Assay: GEMS SEAP reporter assay, CBPvene (Bcl2high, LD3-v and Bcl2-v variants) with venetoclax
# Format: cell-based
# [1] = Supp Fig 10b, Bcl2-v4, venetoclax 316 nM
# [2] = Supp Fig 10b, Bcl2-v4, venetoclax 1000 nM
# [3] = Supp Fig 10b, Bcl2-v4, venetoclax 3160 nM
# [4] = Supp Fig 10b, Bcl2-v4, venetoclax 10000 nM
# [5] = Supp Fig 10b, Bcl2-v5, venetoclax 1 nM
# [6] = Supp Fig 10b, Bcl2-v5, venetoclax 3.16 nM
# [7] = Supp Fig 10b, Bcl2-v5, venetoclax 10 nM
# [8] = Supp Fig 10b, Bcl2-v5, venetoclax 31.6 nM
# [9] = Supp Fig 10b, Bcl2-v5, venetoclax 100 nM
# [10] = Supp Fig 10b, Bcl2-v5, venetoclax 316 nM
# [11] = Supp Fig 10b, Bcl2-v5, venetoclax 1000 nM
# [12] = Supp Fig 10b, Bcl2-v5, venetoclax 3160 nM
# [13] = Supp Fig 10b, Bcl2-v5, venetoclax 10000 nM
# [14] = Supp Fig 10b, Bcl2-v6, venetoclax 1 nM
# [15] = Supp Fig 10b, Bcl2-v6, venetoclax 3.16 nM
# [16] = Supp Fig 10b, Bcl2-v6, venetoclax 10 nM
# [17] = Supp Fig 10b, Bcl2-v6, venetoclax 31.6 nM
# [18] = Supp Fig 10b, Bcl2-v6, venetoclax 100 nM
# [19] = Supp Fig 10b, Bcl2-v6, venetoclax 316 nM
# [20] = Supp Fig 10b, Bcl2-v6, venetoclax 1000 nM
# [21] = Supp Fig 10b, Bcl2-v6, venetoclax 3160 nM
# [22] = Supp Fig 10b, Bcl2-v6, venetoclax 10000 nM
# [23] = Supp Fig 10b, Bcl2, venetoclax 1 nM
# [24] = Supp Fig 10b, Bcl2, venetoclax 3.16 nM
# [25] = Supp Fig 10b, Bcl2, venetoclax 10 nM
# [26] = Supp Fig 10b, Bcl2, venetoclax 31.6 nM
# [27] = Supp Fig 10b, Bcl2, venetoclax 100 nM
# [28] = Supp Fig 10b, Bcl2, venetoclax 316 nM
# [29] = Supp Fig 10b, Bcl2, venetoclax 1000 nM
# [30] = Supp Fig 10b, Bcl2, venetoclax 3160 nM
# [31] = Supp Fig 10b, Bcl2, venetoclax 10000 nM
# [32] = Supp Fig 10c, Bcl2-v1, venetoclax 1 nM
# [33] = Supp Fig 10c, Bcl2-v1, venetoclax 3.16 nM
# [34] = Supp Fig 10c, Bcl2-v2, venetoclax 1 nM
# [35] = Supp Fig 10c, Bcl2-v2, venetoclax 3.16 nM
# [36] = Supp Fig 10c, Bcl2-v3, venetoclax 1 nM
# [37] = Supp Fig 10c, Bcl2-v3, venetoclax 3.16 nM
# [38] = Supp Fig 10c, Bcl2-v5, venetoclax 1 nM
# [39] = Supp Fig 10c, Bcl2-v5, venetoclax 3.16 nM
# [40] = Supp Fig 10c, Bcl2-v6, venetoclax 1 nM
# [41] = Supp Fig 10c, Bcl2, venetoclax 1 nM
# [42] = Supp Fig 10c, Bcl2, venetoclax 3.16 nM
# [43] = SuppFigure 8a, LD3, venetoclax 1 nM
# [44] = SuppFigure 8a, LD3, venetoclax 3.16 nM
# [45] = SuppFigure 8a, LD3, venetoclax 100 nM
# [46] = SuppFigure 8a, LD3, venetoclax 316 nM
# [47] = SuppFigure 8a, LD3, venetoclax 1000 nM
# [48] = SuppFigure 8a, LD3, venetoclax 3160 nM
# [49] = SuppFigure 8a, LD3, venetoclax 10000 nM
# [50] = SuppFigure 8a, LD3v1, venetoclax 1 nM
# [51] = SuppFigure 8a, LD3v1, venetoclax 3.16 nM
# [52] = SuppFigure 8a, LD3v1, venetoclax 100 nM
# [53] = SuppFigure 8a, LD3v1, venetoclax 316 nM
# [54] = SuppFigure 8a, LD3v1, venetoclax 1000 nM
# [55] = SuppFigure 8a, LD3v1, venetoclax 3160 nM
# [56] = SuppFigure 8a, LD3v1, venetoclax 10000 nM
# [57] = SuppFigure 8a, LD3v2, venetoclax 1 nM
# [58] = SuppFigure 8a, LD3v2, venetoclax 3.16 nM
# [59] = SuppFigure 8a, LD3v2, venetoclax 100 nM
# [60] = SuppFigure 8a, LD3v2, venetoclax 316 nM
# [61] = SuppFigure 8a, LD3v2, venetoclax 1000 nM
# [62] = SuppFigure 8a, LD3v2, venetoclax 3160 nM
# [63] = SuppFigure 8a, LD3v2, venetoclax 10000 nM
# [64] = SuppFigure 8a, LD3v3, venetoclax 1 nM
# [65] = SuppFigure 8a, LD3v3, venetoclax 3.16 nM
# [66] = SuppFigure 8a, LD3v3, venetoclax 100 nM
# [67] = SuppFigure 8a, LD3v3, venetoclax 316 nM
# [68] = SuppFigure 8a, LD3v3, venetoclax 1000 nM
# [69] = SuppFigure 8a, LD3v3, venetoclax 3160 nM
# [70] = SuppFigure 8a, LD3v3, venetoclax 10000 nM
# [71] = SuppFigure 8b, LD3, venetoclax 1 nM
# [72] = SuppFigure 8b, LD3, venetoclax 3.16 nM
smiles,measurement,setting,value
CC1(C)CCC(CN2CCN(c3ccc(C(=O)NS(=O)(=O)c4ccc(NCC5CCOCC5)c([N+](=O)[O-])c4)c(Oc4cnc5[nH]ccc5c4)c3)CC2)=C(c2ccc(Cl)cc2)C1 [Venetoclax],SEAP normalized (max=100),"Supp Fig 10b, Bcl2-v4, venetoclax 100 nM",78.5961
same,SEAP,[1],14.4979
same,SEAP normalized (max=100),[1],43.8128
same,SEAP,[2],9.936
same,SEAP normalized (max=100),[2],30.0279
same,SEAP,[3],8.423
same,SEAP normalized (max=100),[3],25.4557
same,SEAP,[4],7.624
same,SEAP normalized (max=100),[4],23.0384
same,SEAP,[5],45.7217
same,SEAP normalized (max=100),[5],92.4038
same,SEAP,[6],49.4803
same,SEAP normalized (max=100),[6],100
same,SEAP,[7],40.0805
same,SEAP normalized (max=100),[7],81.0029
same,SEAP,[8],46.2116
same,SEAP normalized (max=100),[8],93.3938
same,SEAP,[9],42.8958
same,SEAP normalized (max=100),[9],86.6926
same,SEAP,[10],30.6164
same,SEAP normalized (max=100),[10],61.8759
same,SEAP,[11],14.0666
same,SEAP normalized (max=100),[11],28.4288
same,SEAP,[12],10.2265
same,SEAP normalized (max=100),[12],20.6679
same,SEAP,[13],6.4792
same,SEAP normalized (max=100),[13],13.0945
same,SEAP,[14],50.15
same,SEAP normalized (max=100),[14],13.184
same,SEAP,[15],55.0335
same,SEAP normalized (max=100),[15],14.4678
same,SEAP,[16],53.9332
same,SEAP normalized (max=100),[16],14.1785
same,SEAP,[17],141.748
same,SEAP normalized (max=100),[17],37.2641
same,SEAP,[18],380.387
same,SEAP normalized (max=100),[18],100
same,SEAP,[19],330.205
same,SEAP normalized (max=100),[19],86.8077
same,SEAP,[20],170.706
same,SEAP normalized (max=100),[20],44.877
same,SEAP,[21],26.4901
same,SEAP normalized (max=100),[21],6.964
same,SEAP,[22],10.3289
same,SEAP normalized (max=100),[22],2.715
same,SEAP,[23],34.2584
same,SEAP normalized (max=100),[23],5.865
same,SEAP,[24],39.5038
same,SEAP normalized (max=100),[24],6.763
same,SEAP,[25],88.7679
same,SEAP normalized (max=100),[25],15.1973
same,SEAP,[26],235.479
same,SEAP normalized (max=100),[26],40.3146
same,SEAP,[27],448.604
same,SEAP normalized (max=100),[27],76.8023
same,SEAP,[28],584.102
same,SEAP normalized (max=100),[28],100
same,SEAP,[29],347.384
same,SEAP normalized (max=100),[29],59.4733
same,SEAP,[30],20.111
same,SEAP normalized (max=100),[30],3.443
same,SEAP,[31],12.4887
same,SEAP normalized (max=100),[31],2.138
same,SEAP,[32],26.1238
same,SEAP normalized (max=100),[32],100
same,SEAP,[33],24.5196
same,SEAP normalized (max=100),[33],93.8591
same,SEAP,[34],41.9684
same,SEAP normalized (max=100),[34],37.8578
same,SEAP,[35],39.8265
same,SEAP normalized (max=100),[35],35.9258
same,SEAP,[36],35.0656
same,SEAP normalized (max=100),[36],94.2276
same,SEAP,[37],34.981
same,SEAP normalized (max=100),[37],94.0003
same,SEAP,[38],25.6864
same,SEAP normalized (max=100),[38],99.6735
same,SEAP,[39],25.7705
same,SEAP normalized (max=100),[39],100
same,SEAP,[40],44.5051
same,SEAP normalized (max=100),[40],24.1282
same,SEAP,[41],9.631
same,SEAP normalized (max=100),[41],6.451
same,SEAP,[42],8.848
same,SEAP normalized (max=100),[42],5.926
same,Normalized data (SEAP),[43],18.1283
same,Raw data (SEAP),[43],14.9284
same,Normalized data (SEAP),[44],15.4665
same,Raw data (SEAP),[44],12.7365
same,Normalized data (SEAP),[45],62.0224
same,Raw data (SEAP),[45],51.0746
same,Normalized data (SEAP),[46],79.6476
same,Raw data (SEAP),[46],65.5888
same,Normalized data (SEAP),[47],100
same,Raw data (SEAP),[47],82.3488
same,Normalized data (SEAP),[48],64.1557
same,Raw data (SEAP),[48],52.8314
same,Normalized data (SEAP),[49],26.7094
same,Raw data (SEAP),[49],21.9948
same,Normalized data (SEAP),[50],73.3263
same,Raw data (SEAP),[50],13.9463
same,Normalized data (SEAP),[51],77.9742
same,Raw data (SEAP),[51],14.8303
same,Normalized data (SEAP),[52],93.9945
same,Raw data (SEAP),[52],17.8773
same,Normalized data (SEAP),[53],100
same,Raw data (SEAP),[53],19.0195
same,Normalized data (SEAP),[54],92.9583
same,Raw data (SEAP),[54],17.6802
same,Normalized data (SEAP),[55],77.7035
same,Raw data (SEAP),[55],14.7788
same,Normalized data (SEAP),[56],63.3664
same,Raw data (SEAP),[56],12.052
same,Normalized data (SEAP),[57],16.5083
same,Raw data (SEAP),[57],13.4033
same,Normalized data (SEAP),[58],16.1655
same,Raw data (SEAP),[58],13.125
same,Normalized data (SEAP),[59],55.5208
same,Raw data (SEAP),[59],45.078
same,Normalized data (SEAP),[60],68.4407
same,Raw data (SEAP),[60],55.5679
same,Normalized data (SEAP),[61],100
same,Raw data (SEAP),[61],81.1913
same,Normalized data (SEAP),[62],59.661
same,Raw data (SEAP),[62],48.4395
same,Normalized data (SEAP),[63],19.9233
same,Raw data (SEAP),[63],16.176
same,Normalized data (SEAP),[64],79.8276
same,Raw data (SEAP),[64],14.5214
same,Normalized data (SEAP),[65],77.8421
same,Raw data (SEAP),[65],14.1602
same,Normalized data (SEAP),[66],89.5467
same,Raw data (SEAP),[66],16.2894
same,Normalized data (SEAP),[67],90.6522
same,Raw data (SEAP),[67],16.4905
same,Normalized data (SEAP),[68],100
same,Raw data (SEAP),[68],18.191
same,Normalized data (SEAP),[69],92.956
same,Raw data (SEAP),[69],16.9096
same,Normalized data (SEAP),[70],54.34
same,Raw data (SEAP),[70],9.885
same,Normalized data (SEAP),[71],3.308
same,Raw data (SEAP),[71],13.9036
same,Normalized data (SEAP),[72],3.395
same,Raw data (SEAP),[72],14.2688
